# From US20200308184A1, “TETRAPYRROLIC CONJUGATES AND USES THEREOF FOR IMAGING” (Health Research, Inc., priority 2017, published 2020)
# Read-outs that look alike come from different tables or passages of the source.
# Key:
# [1] = T1 and T2 relaxivities of compounds 4, 9 & 14 on 4.7 Tesla preclinical MRI; format: physicochemical; details: T1 relaxivity, 37C, in PBS
# Procedure: Characterization of MR imaging efficacy for compounds 4, 9 & 14. MR imaging was performed on a 4.7 Tesla preclinical MRI using the ParaVision 3.0.2 acquisition platform (Bruker Biospin, Billerica Mass.). In vitro relaxivities were acquired using the Bruker G060 gradient insert and a quadrature radiofrequency coil (35 mm ID, m2m Imaging, Cleveland Ohio). In vivo imaging in rat models utilized larger Accustar® shield gradients (150 mm ID) and a quadrature radiofrequency coil (72 mm ID, Bruker Biospin).
# T1 and T2 relaxivities for compounds 4, 9 & 14 were acquired at 37C. Samples were diluted in PBS with concentrations ranging from 50 to 200 μM and transferred to NMR tubes for imaging. A tube containing 1× PBS was included as a “0 μM control”. T1 relaxation rates of serial dilutions were measured using an inversion-recovery TrueFISP acquisition with the following parameters: TE/TR=1.5/3.0 ms, flip angle=30°, inv. Repetition time=10 s, segments=8, frames=100. T2 relaxation rates were measured using a multi-echo, Carr-Purcell-Meiboom-Gill (CPMG) spin-echo sequence with a fixed TR of 3000 ms and TE times ranging from 20-1200 ms in 20 ms increments (60 echoes). The relaxation rate of each sample calculated using non-linear regression analysis routines developed in MATLAB (MathWorks, Natick, Mass.) and relaxivities were then calculated by linear regression (concentration vs. relaxation rate).
# [2] = published value, 37 C; cited from earlier work
# Ward rat tumor = details: HPPH alone, previous findings; cited from earlier work
rl at 4.7T [1] [mM/s],SMILES,rl at 4.7T [2] [mM/s],also measured
4.44,CCCCCCOC(C)c1c(C)c2cc3nc(c4c5[nH]c(cc6nc(cc1[nH]2)C(C)=C6CC)c(C)c5C(=O)C4)[C@@H](CCC(=O)NCCNC(=O)CN1CCN(CC(=O)[O-])CCN(CC(=O)[O-])CCN(CC(=O)[O-])CC1)C3C.[Gd+3] (some centres unmarked) [compound 4],–,–
–,O=C([O-])CN1CCN(CC(=O)[O-])CCN(CC(=O)O)CCN(CC(=O)[O-])CC1.[Gd+3] [Gd-DOTA],2.8,–
–,"O=C([O-])CN(CCN(CC(=O)[O-])CC(=O)O)CCN(CC(=O)[O-])CC(=O)O.[Gd+3] [Gd-DTPA, Gadolinium-diethyline-triamine pentacetic-acid]",3.2,–
10.65,CCCCCCOC(C)c1c(C)c2cc3nc(c4c5[nH]c(cc6nc(cc1[nH]2)C(C)=C6CC)c(C)c5C(=O)C4)[C@@H](CCC(=O)N(CC(=O)NCCNC(=O)CN1CCN(CC(=O)[O-])CCN(CC(=O)[O-])CCN(CC(=O)[O-])CC1)CC(=O)NCCNC(=O)CN1CCN(CC(=O)[O-])CCN(CC(=O)[O-])CCN(CC(=O)[O-])CC1)C3C.[Gd+3].[Gd+3] (some centres unmarked) [compound 9],–,–
–,"CCCCCCOC(C)c1c(C)c2cc3nc(c4c5[nH]c(cc6nc(cc1[nH]2)C(C)=C6CC)c(C)c5C(=O)C4)[C@@H](CCC(=O)O)[C@@H]3C (some centres unmarked) [HPPH, 3-(1-hexyloxyethyl) pyropheophorbide-a]",–,time of peak concentrations (Ward rat tumor): 24 h
